Data reported in patent US8975259B2, “Compositions and methods for inhibiting G protein signaling” (University of Rochester, priority 2007, dated 2015).
Like-named read-outs stand apart in the source and are kept apart here.

Columns and labels:
[1] = test system: NADPH oxidase activity in fMLP-challenged HL60 cells; test: fMLP-dependent superoxide production (NBT) in differentiated HL60 cells; format: cell-based, human; settings: 10 μM compounds or 100 nM wortmannin, 250 nM fMLP; result in words
Experimental: Differentiated HL60 cells stably expressing GFP-PH-Akt were challenged with 250 nM fMLP in the presence and absence of 10 μM concentrations of the indicated compounds. Translocation of GFP-PH-Akt to the plasma membrane was evaluated by Western blot. Quantification shown below. ***, P<0.001 analysis of variance (ANOVA) is statistically different from control (PBS+vehicle). […] Differentiated HL60 cells were challenged with 1 μM fMLP in the presence and absence of 10 μM concentrations of the indicated compounds. Rac1 activation was assessed by Western blots of affinity-precipitated GTP-Rac1 from HL60 cell lysates. Western blot shown is representative of three independent experiments and quantitation contains data pooled from three independent experiments±S.E.M. *P<0.05 ANOVA is statistically different from control (DMSO only). n=3. […] Differentiated HL60 cells were challenged with 250 nM fMLP or 250 nM PMA in the presence and absence of 10 μM compounds or 100 nM Wortmannin (Wtmn). NADPH oxidase activity was determined after reaction with NBT by absorbance at 540 nm. Data shown is contains data pooled from three independent experiments (each in duplicate)±S.E.M. *, P<0.05 ANOVA is statistically different from control (DMSO only).
The nitro blue tetrazolium (NBT) method was used to assess the effects of Gβγ inhibitors on NADPH oxidase activity. HL60 cells (differentiated for 4 days) were washed with and resuspended in HBSS containing calcium and magnesium (Cellgro; Mediatech, Herndon Va.) to a final concentration of 2×10^6 cells/ml. Cells (1×10^6/reaction) were pretreated with 10 μMGβγ inhibitor compound (in DMSO) or 100 nM wortmannin (Sigma Aldrich) for 10 min at 37° C. before the addition of NBT (25 μl of 10 mg/ml in methanol) and then incubated or an additional 5 min at 37° C. All treatments contained the same final concentration of DMSO. […] Cell pellets were then resuspended in 200 μl of DMSO, transferred to a 96-well plate, and absorbance was measured at 540 nm. […]

[2] = test system: isolated adult mouse cardiomyocytes; test: Contractility of isolated adult mouse cardiomyocytes; format: cell-based; settings: result in words
Experimental: Pretreatment with the general β-AR antagonist, propranolol, abolishes the effects of M119 and Iso on cardiomyocyte contractility.
The above data led to investigations that M119 plays a positive functional role in the heart, due in part to its inhibition of Gβγ-GRK2 interactions. Prior to pursuing in vivo studies with M119, the role of M119 affecting contractility was evaluated by assessment of isolated adult mouse cardiomyocyte contractility at baseline and in response to β-AR stimulation.
Mechanical properties of ventricular myocytes are assessed by an IonOptix Myocam system (IonOptix Inc., Milton, Mass., U.S.A.). Myocytes are superfused (at 25° C.) with Tyrodes, cells are pre-loaded in culture medium for 20 minutes with Fura-2, for concurrent calcium flux and myocyte contractility following field stimulation at 0.5 Hz.

Gβ1γ2 = Gβ1γ2 (UniProt P54311+P63212); test: Competition phage ELISA: inhibition of SIGK-phage binding to immobilized biotinylated Gβ1γ2; parameters: made in house; host or cells: Sf9 insect cells (baculovirus; co-expressed with BirA and (His)6-Gαi1, from which βγ was eluted); species or system rat
Experimental: Phage ELISA assays used to assess peptide binding to wild-type and mutant b-βγ were performed according to standard methods (Smrcka and Scott (2002) Methods Enzymol. 344:557-76). Briefly, 1 μg streptavidin was immobilized in the well of a […] overnight at 4° C. The wells were blocked with 100 μL of 2% bovine serum albumin (BSA) in Tris-buffered saline (TBS) for 1 hour at 4° C. followed by three washes of IX TBS/0.5% TWEEN®. […] The wells were washed, followed by the addition of IxIO^6 to IxIO^10 phage particles and incubated at 4° C. for 3 hours. The wells were then washed six times with TBS/0.5% TWEEN® followed by addition of 40 μL of 1:5000 dilution of anti-M13 antibody (Pharmacia, Uppsala, Sweden) and incubated at room temperature for 1 hour. The wells were washed, followed by the addition of 40 μL of (2,2′-Azino-bis (3-ethylbenzthiazoline)-6-sulfonic acid (ABTS) and the colorimetric reaction was monitored at 405 nm. Nonspecific binding was subtracted for each reading.
A phage ELISA assay was used to determine whether small molecules identified in the computational screen could interact with the Gβy protein interaction surface. […] The screen was based on a reduction in the optical density (OD) of wells containing Gβγ subunits and phage. […] Three background wells contained no βy subunits.
As disclosed herein, biotinylated Gβy subunits were immobilized on the surface of a 96-well plate coated with streptavidin, phage displaying Gβγ-binding peptides were subsequently added and binding in the presence and absence of test compounds detected with an anti-phage antibody.
The phage ELISA assay was used to rapidly screen the ability of compounds to bind to the protein interaction “hot spot” based on the method of Scott et. al (Scott et al., 2001). This assay is performed in the presence of detergent (0.5% Tween) to eliminate non-specific compound aggregation artifacts.
Compounds/DMSO and 0.1×10^10 phage were added simultaneously and subsequently incubated for 1 h at room temperature. Plates were then washed with 1× Tris-buffered saline/0.5% Tween 20 and incubated with anti-M13, HRP-conjugated antibody (Amersham, Chalfont St. Giles, Buckinghamshire, UK). Phage binding was determined by monitoring A405 upon addition of 2,2′-azino-bis(3-ethylbenzothiazoline-6-sulfonic acid) (Sigma Aldrich).

IC50 (Gβ1γ2) | apparent affinity for Gβ1γ2 relative to M119 (Gβ1γ2) | SMILES | effect on fMLP-dependent superoxide production [1] | effect on cardiomyocyte contractility at baseline and with isoproterenol [2] | IC50 (Gβ1γ2; ELISA, Table 19) | IC50 (Gβ1γ2; IC50 μM, Table 18, compounds identified in Elisa screen) | IC50 (Gβ1γ2; IC50, Table 8, last row) | IC50 (Gβ1γ2; IC50 in phage ELISA (SIGK competition))
0.2 µM | – | O=C(O)c1ccccc1-c1c2ccc(=O)c(O)c-2oc2c(O)c(O)ccc12 (racemic) [Gallein] | significantly inhibited | significant positive effects | – | – | – | –
– | – | O=C(O)C1CCCCC1c1c2ccc(=O)c(O)c-2oc2c(O)c(O)ccc12 (stereo not drawn) [Compound M119, cyclohexanecarboxylic acid, 2-(4,5,6-trihydroxy-3-oxo-3H-xanthen-9-yl)-(9cl)] | significantly inhibited | enhanced | 0.2 µM | 0.2 µM | 0.1 µM | 0.2 µM
– | 1/1000 | O=C(O)C1CCCCC1c1c2ccc(=O)cc-2oc2cc(O)ccc12 (stereo not drawn) [Compound M119B] | did not significantly affect | no effect | – | – | – | –
